From patent US20230383261A1, “HEPATOCYTE-LIKE CELLS” (Sana Biotechnology, Inc., priority 2020, published 2023)

Key:
Format in all cases: cell-based, human
hPSC-Heps spheroids = conditions: for ammonia detoxification: media containing ammonia; for ammonia detoxification with excess arginine: media containing ammonia and arginine
Experimental: Human pluripotent stem cell-derived hepatocytes (hPSC-Heps) were obtained after 21 days of differentiation using a 2D adherent protocol. At day 21 the hPSC-Heps were aggregated into spheroids, and then encapsulated within alginate 48 hours later. The spheroids including the alginate encapsulated spheroids were cultured for 14 days in either vitamin K1, vitamin K2 MK4, […], vitamin E, or a combination of all. The spheroids were cultured at a concentration of about 1×10^6 encapsulated cells/ml for the culture period.

[1] = tested on: hepatocyte and urea cycle genes in hepatocyte-like cells; experiment: qPCR expression of hepatocyte and urea cycle genes in iPSC-derived hepatocyte-like cells (Protocols A and B)
Experimental: (§1) Human iPSCs were differentiated to hepatocyte-like cells essentially as described in […] et al., Nature Prot. 8(2):430-437 (2013) (Protocol A) or Blackford et al., Stem Cells Transl Med. 8(2):124-137 (2019) (Protocol B) with the following modifications: cells were maintained in the final medium until a total culture time of 35 days and HepatoZYME basal medium was substituted in Protocol B starting at day 8. Forskolin was added to the final medium at a concentration of […] on day 21 (Protocol A) or day 28 (Protocols A and B). Expression of hepatocyte and urea cycle genes was measured by qPCR and/or fluorescent Western blot analysis. Ureagenesis of the cells was assayed using Urea Assay Kit (BioChain).

hepatocyte-like cells [2] = experiment: ureagenesis after ammonia challenge (Urea Assay Kit); conditions: day 35, seven-day forskolin
Experimental: as §1, with “(BioChain). Ureagenesis activity was measured in day 35 cells from Protocol A and Protocol B following seven-day treatment with forskolin, following challenge of the hepatocyte-like cells with 0-16 mM ammonia. […] For Protocol A, ureagenesis activity peaked at stimulation with 5 mM ammonia treatment at about 20 nmol/min/10^6 cells, and levels were observed higher than those seen using primary human hepatocytes. For […], ureagenesis activity peaked at stimulation with 10 mM ammonia at a level similar to primary human hepatocytes, about 3 nmol/min/10^6 cells.” for “(BioChain).”

[3] = tested on: hepatocyte maturation genes and urea cycle genes in hepatocyte-like cells; experiment: Taqman qPCR gene expression, 3D differentiation protocol with or without forskolin; conditions: 10 μM forskolin days 28 to 35, vs untreated
Experimental: In the process, the pluripotent stem cells differentiate through different stages including a definitive endoderm stage, an anterior definitive endoderm stage, a foregut endoderm stage, a hepatic endoderm stage, an immature hepatocyte stage, and a mature hepatocyte stage. […] All pluripotent cell lines robustly differentiated in the endoderm lineage in the 3D format, with all cell lines achieving a target efficiency of 90% CXCR4 expressing cells. Gene expression analysis was performed on hepatocyte-like cells produced by either (i) a 3D differentiation protocol or (ii) a 3D differentiation protocol with the addition of 10 μM forskolin from days 28 to day 35. Duplicate RNA samples were isolated at selected time point of the differentiation and gene expression was analyzed by Taqman qPCR.

hepatocyte-like cells [4] = experiment: urea production assay at day 35, 2D differentiation with forskolin; conditions: forskolin about 5 μM to about 10 μM after the first 26 days, read at day 35
Experimental: Mature hepatocyte-like cells were differentiated from human pluripotent stem cells using a 2D differentiation protocol for the first 26 days of differentiation, and then the immature hepatocyte-like cells were cultured in media containing forskolin (ranging from about 5 μM to about 10 μM). At day 35, the activity for the hepatocytes was determined using a urea production assay.

[5] = tested on: hepatocyte-specific genes and urea cycle enzyme genes; experiment: gene expression in differentiation methods A, B and C with forskolin; conditions: forskolin at days 21-35 or 30-35 (3D) or days 28-35 (2D)
Experimental: This example provides urea cycle gene expression of hepatocyte-like cells differentiated using three different methods, such as a 3D differentiation method with forskolin treatment at days 21-35 (method A), a 3D differentiation method with forskolin treatment at days 30-35 (method B), and a 2D differentiation method with forskolin treatment at days 28-35 (method C). The expression of the following genes were measured: alpha fetoprotein (AFP), albumin (ALB), arginase 1 (ARG1), asialoglycoprotein receptor 1 (ASGR1), agininosuccinate lyase (ASL), argininosuccinate synthase 1 (ASS1), carbamoyl-phosphate synthase 1 (CPS1), glucose-6-phosphatase (G6PC), hepatocyte nuclear factor 4 alpha (HNF4a), keratin type I cytoskeletal 18 (KRT18), […] (NAGS), ornithine transcarbamylase (OTC), and SOX9. Expression of cardiac-specific markers NKX2.5 and TNNT2 were used as a negative expression control.
In this study, forskolin treatment was included at days 21-35 of the 3D hepatocyte differentiation process outlined above, at days 30-35 of the 3D hepatocyte differentiation process outlined above, or days 28-35 of the 2D hepatocyte differentiation process outlined above. Gene expression of numerous hepatocyte and urea cycle markers was measured at different time points.

[6] = tested on: CYP3A4 activity in hepatocyte-like cells; experiment: CYP3A4 enzyme activity assay of hepatocyte maturation, media with or without HGF; conditions: absence of HGF in the culture media after the first 14 days of 2D differentiation, vs media containing HGF
Experimental: Mature hepatocyte-like cells were differentiated from human pluripotent stem cells using a 2D differentiation protocol for the first 14 days of differentiation, and then the cells were cultured in media lacking recombinant HGF. At day 14, hepatocytes at the hepatic endoderm stage were dissociated and seeded into these plates in fully supplemented HepatoZYME-SFM media. 24 hours later the cells were cultured and maintained in media lacking recombinant HGF. Hepatocyte maturation was determined using a CYP3A4 enzyme activity assay.

## CC1=C(C/C=C(\C)CCC[C@H](C)CCC[C@H](C)CCCC(C)C)C(=O)c2ccccc2C1=O [vitamin K1]
hPSC-Heps spheroids
  functional maturation status of the hepatocytes (urea synthesis): increased the functional maturation status
  ammonia detoxification: more effective at detoxifying ammonia
  ammonia detoxification with excess arginine: detoxified ammonia even faster

## CC(C)=CCC/C(C)=C/CC/C(C)=C/CC/C(C)=C/CC1=C(C)C(=O)c2ccccc2C1=O [vitamin K2 MK4]
hPSC-Heps spheroids
  functional maturation status of the hepatocytes (urea synthesis): increased the functional maturation status

## CC(C)=CCC/C(C)=C/CC/C(C)=C/CC/C(C)=C/CC/C(C)=C/CC/C(C)=C/CC/C(C)=C/CC1=C(C)C(=O)c2ccccc2C1=O [vitamin K2 MK7]
hPSC-Heps spheroids
  functional maturation status of the hepatocytes (urea synthesis): increased the functional maturation status

## CC(C)=CCC/C(C)=C/CC/C(C)=C/CC/C(C)=C/CC1=C(C)C(=O)c2ccccc2C1=O [vitamin K2]
hPSC-Heps spheroids
  ammonia detoxification: more effective at detoxifying ammonia
  ammonia detoxification with excess arginine: detoxified ammonia even faster

## C=C[C@@]1(C)CC(=O)[C@]2(O)[C@@]3(C)[C@@H](O)CCC(C)(C)[C@@H]3[C@H](O)[C@H](OC(C)=O)[C@@]2(C)O1 [forskolin]
[1]; Protocol A, forskolin 10 mM at days 21-28, vs cells without forskolin, qPCR
  increase in urea cycle gene CPS1: 5-8 fold
[1]; Protocol A, forskolin 10 mM in medium at days 21-28, vs cells without forskolin, qPCR
  expression of hepatocyte-like cell genes (HNF4a, AFP, ALB, ASGR1): no significant effect
[1]; Protocol B, forskolin 10 mM at days 28-35, read at day 35, vs cells without forskolin
  enhancement of hepatocyte-like cell gene (HNF4a, ALB, ASGR1) expression: 2-4 fold
hepatocyte-like cells [2]; Protocol A, stimulation with 5 mM ammonia, higher than primary human hepatocytes
  peak ureagenesis activity: about 20 nmol/min/10^6 cells
hepatocyte-like cells [2]; printed Protocol A (second mention), stimulation with 10 mM ammonia, similar to primary human hepatocytes
  peak ureagenesis activity: about 3 nmol/min/10^6 cells
[3]
  expression of hepatocyte maturation genes and urea cycle genes: increases in expression
hepatocyte-like cells [4]
  ureagenesis activity of the differentiated mature hepatocyte: enhanced the ureagenesis activity
[5]
  expression of hepatocyte-specific and urea cycle enzyme genes including ALB, ARG1, ASGR1, ASL, CPS1, G6PC, HNF4a and/or NAGS: increased expression

## HGF: recombinant hepatocyte growth factor in culture media
[6]
  hepatocyte maturation (CYP3A4 enzyme activity): enhanced hepatocyte maturation
